From paper PMC6085608, “Glutathione S-transferases play a role in the detoxification of flumethrin and chlorpyrifos in Haemaphysalis longicornis” (Parasites & Vectors, 2018)

Legend:
recombinant HlGST = target: T1, recombinant HlGST (Haemaphysalis longicornis, UniProt Q6JVN0); assay: CDNB conjugation kinetics with […] acaricide; type: biochemical; details: 5 mM glutathione, CDNB 0.125-2 mM, pH 7.5, 25 °C
T1 construct: gene GST
T1 sequence (Q6JVN0 1-223): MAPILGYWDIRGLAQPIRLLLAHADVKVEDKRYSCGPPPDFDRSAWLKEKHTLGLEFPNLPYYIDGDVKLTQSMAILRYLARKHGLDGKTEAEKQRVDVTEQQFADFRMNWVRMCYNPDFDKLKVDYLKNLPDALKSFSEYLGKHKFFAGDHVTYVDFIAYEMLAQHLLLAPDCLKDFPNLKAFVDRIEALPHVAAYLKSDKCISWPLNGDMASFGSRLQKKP

recombinant HlGST2 = target: T2, recombinant HlGST2 (Haemaphysalis longicornis, UniProt A0A2Z6FA39); assay: CDNB conjugation kinetics with […] acaricide; type: biochemical; details: inhibitor, noncompetitive, 5 mM glutathione, CDNB 0.125-2 mM, pH 7.5, 25 °C
T2 construct: gene GST
T2 sequence (A0A2Z6FA39 1-230): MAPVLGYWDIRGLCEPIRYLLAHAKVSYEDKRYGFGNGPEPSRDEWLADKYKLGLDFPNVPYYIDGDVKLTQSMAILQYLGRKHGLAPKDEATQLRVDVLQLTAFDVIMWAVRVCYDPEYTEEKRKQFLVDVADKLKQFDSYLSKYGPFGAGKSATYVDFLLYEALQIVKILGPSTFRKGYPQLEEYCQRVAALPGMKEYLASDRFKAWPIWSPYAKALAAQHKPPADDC

Compound	CDNB conjugation kinetics with 0.1 mM acaricide (recombinant HlGST; inhibitor, uncompetitive)	CDNB conjugation kinetics with 0.1 mM acaricide (recombinant HlGST; apparent activator (lowers Km for CDNB))	CDNB conjugation kinetics with 0.1 mM acaricide (recombinant HlGST2)
CC1(C)C(C=C(Cl)c2ccc(Cl)cc2)C1C(=O)OC(C#N)c1ccc(F)c(Oc2ccccc2)c1 (centres unmarked) [flumethrin]	flumethrin and cypermethrin showed uncompetitive inhibition of recombinant HlGST		
CCOP(=S)(OCC)Oc1ccc2c(C)c(Cl)c(=O)oc2c1 [coumaphos]		Coumaphos significantly decreased the Km of recombinant HlGST, indicating the apparent activation	
CCOP(=S)(OCC)Oc1nc(Cl)c(Cl)cc1Cl [chlorpyrifos]			chlorpyrifos and cypermethrin showed noncompetitive inhibition of recombinant HlGST2
CC1(C)C(C=C(Cl)Cl)C1C(=O)OC(C#N)c1cccc(Oc2ccccc2)c1 (centres unmarked) [cypermethrin]	flumethrin and cypermethrin showed uncompetitive inhibition of recombinant HlGST		chlorpyrifos and cypermethrin showed noncompetitive inhibition of recombinant HlGST2
